Experimental data reported in US20100035755A1, “METHOD OF CONTROLLING WEEDS IN A TURF GRASS BY USING SULFONYLUREA COMPOUNDS” (Moghu Research Center Ltd., priority 2008, published 2010).

Legend:
warm season turf grass = details: background statement; zoysiagrass, Burmudagrass; cited from earlier work
Digitaria sanguinalis = test: Actual field condition test of Example 1 (golf course); type: in vivo; details: for efficacy in actual field condition: Digitaria sanguinalis (about 4-leaf stage), twenty days after application
Protocol: The test chemical of the Example 1 was applied to a turf grass field, in which Digitaria sanguinalis as a representative summer-time poaceae weed and Kyllinga brevifolia as a representative hard-to-control perennial cyperaceae weed are thriving predominantly, to evaluate weed control effect of the compound. The experiment was carried out from May to July, 2008 in the Dae-duk Research Park golf course (Doryong-dong, Yusong-gu, Daejon, South Korea). At the time of the chemical application, Digitaria sanguinalis was at about 4-leaf stage and Kyllinga brevifolia was at growth period.

COc1cc(OC)nc(NC(=O)NS(=O)(=O)c2ncccc2C(F)(F)F)n1 [Control chemical No. 2, Flazasulfuron, reference compound]
safety to warm season turf grass (warm season turf grass): have a safety

Cc1cc(C)nc(NC(=O)NS(=O)(=O)c2ccccc2C(O)C(C)F)n1 (centres unmarked) [Example 1]
efficacy in actual field condition (Digitaria sanguinalis; 50 g ai/ha): 80 | efficacy in actual field condition (Digitaria sanguinalis; 100 g ai/ha): 90 | efficacy in actual field condition (Digitaria sanguinalis; 200 g ai/ha): 100 | weed controlled in actual field (Digitaria sanguinalis; Digitaria sanguinalis, 50 g ai/ha or more): 80%
